This data set is described as follows: gradient 5% acetonitrile 3 min, to 50% in 2 min, to 85% in 15 min, held 3 min, 100 µL/min. To be noted: column: Zorbax Extend-C18 2.1 x 50 mm; eluents: water / acetonitrile, 0.1% formic acid. The method, boiled down: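 In both positive and negative ionization mode, a quadrupole time-of-flight mass spectrometer coupled to HPLC analyzed pure standards run in mixtures of ~100 molecules. The Zorbax Extend-C18 column (2.1 × 50 mm, 1.8 μm) was operated at 100 μL/min with water and acetonitrile, each containing 0.1% formic acid. The dead volume was 40 μL and the dwell volume 900 μL. Retention time came from adduct peaks that were computationally picked and individually inspected by hand.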
On to `Cc1nc(-c2ccccc2)sc1C(=O)N1CCN(c2ccc(-n3ccnc3C)nn2)CC1`, for which the RP-LC retention time came out at 572 s.

For the compound `c1ccc(-c2nc(-c3ccccn3)nc(-c3ccccn3)n2)nc1`, the RP-LC retention time came out at 644 s. As to `COc1ccc(CC(=O)NC(C(=O)Nc2nc3ccccc3[nH]2)C(C)C)c(Cl)c1` (centres undefined), the RP-LC retention time was determined as 744 s. Next, `CCOCCCNC(=O)c1ccc2nc(CCc3ccc(NC(C)=O)cc3)[nH]c2c1`: 589 s; `Nc1cc(C2CCN(C(=O)c3ccc(Cl)cc3)CC2)no1`: 705 s; `CCOc1cccc(-c2noc(Cn3c(=O)n(Cc4ccccc4)c(=O)c4sccc43)n2)c1`: 1160 s. Take `Cc1ccn(CC(=O)NC2CCN(c3ccc(=O)n(CC4CC4)n3)C2)n1` (centres undefined): the RP-LC retention time is 631 s.

For the compound `NC(=O)CCC(C(=O)O)N1C(=O)c2ccc(O)cc2C1=O` (centres undefined), the RP-LC retention time was 620 s. The same measure for `CC1CN(C(=O)C2CCN(S(=O)(=O)c3cccnc3)CC2)c2ccccc2O1` (centres undefined): 825 s; for `CN(C)CCNC(=O)C1CCN(S(=O)(=O)c2ccc3c(c2)sc(=O)n3C)CC1`: 606 s. In turn, `O=c1n(Cc2cccc(F)c2)nc2c(-c3nc(-c4cccc(F)c4)no3)cccn12` had an RP-LC retention time of 1030 s. The same measure for `COCc1nnc(NC(=O)C2CCN(C(=O)c3ccccc3Cl)CC2)s1`: 670 s; for `Cc1cc(C(=O)N2CCCCCC2)nc2cc(-c3cccs3)nn12`: 977 s; for `O=C(Cn1nc2c(Oc3ccccc3)nccn2c1=O)Nc1ccc(F)cc1Cl`: 796 s. Turning to `Cn1cc(C2=CCN(S(=O)(=O)c3ccccc3)CC2)c2cccnc21`, the RP-LC retention time turned out to be 927 s.

The compound `CCCOc1nc2ccccc2nc1N1CCCC(C(=O)Nc2c(Cl)cc(OC)cc2OC)C1` (centres undefined) came in with an RP-LC retention time of 1370 s. Next, `COCCCNS(=O)(=O)c1cc(-c2[nH]ncc2C(=O)N2CCCC2)oc1C`: 623 s.

On to `COc1ccccc1-c1nc(-c2ccc3ncn(C(C)C)c3c2)no1`, for which the RP-LC retention time was 741 s.

For `CCCn1c(=O)c(-c2ccc(C(=O)NCC(C)C)cc2)nc2cccnc21`, the RP-LC retention time is 967 s. Turning to `CC1CCCCC12NCCN=C2NCc1cccc(F)c1` (centres undefined), the RP-LC retention time was found to be 640 s. Next, `COc1cc([C@@H]2c3cc4c(cc3[C@H](O)[C@@H](CO)[C@@H]2C(=O)NCc2cccc(C(F)(F)F)c2)OCO4)cc(OC)c1OC`: 783 s; `COc1ccc(C2Nc3ccccc3NC3=C2C(=O)CC(c2cccs2)C3)cc1OC` (centres undefined): 730 s; `Cc1ccc2[nH]c(=O)c(CCC(=O)NCc3ccccn3)cc2c1`: 596 s. `CCOC(=O)C1=C(N)Oc2c(oc(CO)cc2=O)C1c1cccnc1` (centres undefined) yielded an RP-LC retention time of 612 s.

Turning to `CCN(CC)S(=O)(=O)c1ccc2c(c1)N(CC(=O)NCc1cccs1)C(=O)C1CCCCN21` (centres undefined), the RP-LC retention time worked out at 949 s. Next, `Cc1oc(C2CCN(S(=O)(=O)c3ccccc3)CC2)nc1C(=O)N1CCOCC1`: 758 s; `O=C(CCC(=O)N1CCN(c2ccc(=O)n(-c3ccc(Cl)cc3)n2)CC1)N1CCOCC1`: 659 s; `CCOc1ccccc1N(C)C(=O)C1CCCN(c2ncnc3c2nc2n3CCCCC2)C1` (centres undefined): 850 s.

In the case of `Cc1nn(CC(=O)NCCC(C)C)c(=O)c2nc(-c3ccccc3)sc12`, the RP-LC retention time worked out at 871 s. As for `O=C(Nc1ccc(Cl)cc1C(F)(F)F)N1CCC(n2cnnc2C2CC2)C1` (centres undefined), the RP-LC retention time was 704 s. The same measure for `CCN1CCN(CCNC(=O)C(C)C2CCN(C(=O)c3cc4cc(Cl)ccc4[nH]3)CC2)CC1` (centres undefined): 630 s; for `COc1cc(Cl)c(NC(=O)C2CC(=O)N(c3cccc(NC(C)=O)c3)C2)c(OC)c1` (centres undefined): 711 s. On to `CCOC(=O)c1sc(NC(=O)Cn2nc3c(cc2=O)CCCCC3)nc1C`, for which the RP-LC retention time turned out to be 853 s. The same measure for `CCC(C)NC(=O)c1c(C)sc2ccn(Cc3ccc(F)cc3)c(=O)c12` (centres undefined): 929 s. `O=C(NCCc1c[nH]c2ccc(Cl)cc12)c1cc2n(n1)CCCN(Cc1ccccc1)C2=O` yielded an RP-LC retention time of 904 s. The same measure for `Cc1ccc2c(c1)N(C(=O)Cn1ccn3nc(-c4ccc(F)cc4)c(CO)c3c1=O)CCO2`: 930 s; for `O=c1c2scc(-c3cccc(F)c3)c2ncn1Cc1cccnc1`: 699 s. Next, `Cc1ccc(NC(=O)Cn2c(C(C)C)nc3c(c2=O)CCN(Cc2ccccc2)C3)cc1F`: 740 s; `CCCn1cc(C(=O)NCCCN(C)C)c(S(=O)(=O)N2CCN(c3cccc(Cl)c3)CC2)n1`: 758 s; `Cc1noc([C@@H]2CN(C(=O)CC(C)(C)C)C[C@H]2CO)n1`: 644 s. In the case of `O=C(NC1CCCC1)C1CCCN(c2ncnc3c2oc2ccccc23)C1` (centres undefined), the RP-LC retention time was 713 s. Next, `O=C(NCCc1csc(-c2cccc(F)c2)n1)c1ccc([N+](=O)[O-])cc1Cl`: 917 s. The same measure for `CC1CCCCN1Cc1nnc(-c2ccccc2)o1` (centres undefined): 597 s; for `Cc1nc(Oc2ccccc2)cc(N2CCN(C(=O)c3c(F)cccc3F)CC2)n1`: 785 s; for `O=S(=O)(c1cnc[nH]1)N1CCC(c2nc(CCOc3ccc(F)cc3)no2)C1` (centres undefined): 762 s.

Regarding `O=C(NCc1ccccc1Cl)C1CCN(C(=O)c2ncn3c2COC(c2ccccc2)C3)CC1` (centres undefined), the RP-LC retention time amounted to 786 s. The same measure for `Cc1cccc(CNC(=O)c2[nH]c3cc(C)sc3c2CN2CCOCC2)c1`: 724 s. The same measure for `O=C(Nc1ncnc2sccc12)c1ccc([N+](=O)[O-])o1`: 664 s; for `CCCCc1ccc(NC(=O)N2CCCC2c2nncn2C2CCCC2)cc1` (centres undefined): 864 s; for `Cc1nn(-c2cc(N3CCCC3)ncn2)c(C)c1CCC(=O)NCc1ccco1`: 686 s. Next, `COc1ccccc1C(=O)Nc1nnc(SCc2nnc(-c3ccccc3)o2)s1`: 914 s; `CCOc1ccc(-c2nc(COc3cc(C)c4c(C)nn(C)c4n3)c(C)o2)cc1OC`: 1110 s; `CCCNC(=O)C1CCCN(c2nc3ncn(CC(=O)N4CCc5ccccc5C4)c(=O)c3s2)C1` (centres undefined): 705 s. On to `COCCn1cc2c3c(cccc31)CN(C(=O)NCc1ccc(F)cc1)CC2`, for which the RP-LC retention time turned out to be 842 s.

`Cc1cc(C(=O)NC2CCCCC2)nc2cc(-c3cccs3)nn12` came in with an RP-LC retention time of 1220 s. Compound `Cc1cc(N2CCOCC2)nc(N2CCN(S(=O)(=O)c3ccc(Br)cc3)CC2)n1` came in with an RP-LC retention time of 718 s. With `CC(C)c1ccc(S(=O)(=O)N2CCC(n3c(-c4ccco4)nc4cccnc43)C2)cc1` (centres undefined), the RP-LC retention time was found to be 1060 s.

Consider `CCOc1ccccc1NC(=O)C(=O)NCc1cc(C)oc1C`, for which the RP-LC retention time stood at 697 s.

In turn, `COc1ccccc1OCCNC(=O)[C@@]12CCCC[C@H]1N(C)C(=O)CC2` displayed an RP-LC retention time of 663 s. `Cc1cc(Cl)ccc1NC(=O)C1CCCN1S(=O)(=O)c1cc2c(cc1C)NC(=O)CO2` (centres undefined) returned an RP-LC retention time of 832 s.

In turn, `Cc1ccc(C(=O)N2CCc3cn(C)c4cccc(c34)C2)cc1F` displayed an RP-LC retention time of 997 s. Next, `COc1c(C(=O)NCCN2CCCCC2C)sc2ccc(Cl)cc12` (centres undefined): 716 s; `Cc1cc(C)c2c(n1)nn1c(N3CCN(c4ccccn4)CC3)cc(C)nc21`: 561 s.

On to `CCCN1C(=O)COc2ccc(-c3noc(-c4ccc(OC)cc4)n3)cc21`, for which the RP-LC retention time stood at 1140 s. The same measure for `Cc1ccc(C(=O)OCCN2C(=O)c3ccccc3C2=O)cc1`: 775 s; for `O=C(Nc1cnn(-c2ncc(N3CCCC3)cn2)c1)c1ccccc1C(F)(F)F`: 817 s; for `Cc1cccc(-c2nc(Cn3nnc(-c4nc(-c5cccs5)no4)c3C)c(C)o2)c1`: 1220 s. The same measure for `COc1ccc(S(=O)(=O)N2CCC3(CC2)CC(C)(O)CCO3)cc1OC` (centres undefined): 612 s. Next, `CC1(CNC(=O)c2ccc(Br)cc2)CCOCC1`: 784 s.

Take `COc1ccc(OC)c(CNC(=O)c2cn3cccc(C)c3n2)c1`: the RP-LC retention time was found to be 730 s. Next, `CCOc1cc(=O)n2c(c1C(=O)Nc1cc(Cl)ccc1OC)CCCC2`: 854 s; `CC(=O)N1CCN(c2ccnc3c2c(=O)n(CC(=O)Nc2cc(C)on2)c(=O)n3C)CC1`: 579 s. Next, `O=C1CN(S(=O)(=O)c2ccccc2F)CC2(CCCCC2)N1C1CCCC1`: 1140 s; `CCc1ccccc1NC(=O)N1CCC(N2CCN(Cc3ccccc3)C(=O)C2=O)CC1`: 730 s; `CN(C)c1ccc(CCCNC(=O)C2CC2)cc1`: 525 s. The same measure for `Cc1ccc(NC(=O)Cn2c(C(C)C)nc3c(c2=O)CCN(Cc2ccccc2)C3)cc1`: 714 s. In turn, `COc1ccc(NC(=O)Cn2nc3c(N4CCSCC4)nccn3c2=O)cc1OC` registered an RP-LC retention time of 720 s.

In the case of `Cc1ccc(Cn2c(=O)c(SCC(=O)NC3CC3)nc3ccccc32)cc1`, the RP-LC retention time worked out at 893 s.

The compound `Cc1ccc(NC(=O)C2CCN(S(=O)(=O)c3cc(C(=O)N4CCCC4)n(C)c3)CC2)cc1Cl` displayed an RP-LC retention time of 875 s.

These data come from the METLIN SMRT retention time set (Domingo-Almenara et al. 2019).
